This passage reports EC50 results from patent US20120065187A1 (ALCON RESEARCH, LTD, priority 2008, published 2012).

The term EC50 denotes the concentration giving half of the maximal effect.

Structures can show the parent of a compound that is named as a salt.

In this assay the target is T1, human H4 (Homo sapiens, UniProt Q9H3N8).
T1 construct: host or cells: CHO-K1
T1 sequence (Q9H3N8 whole entry): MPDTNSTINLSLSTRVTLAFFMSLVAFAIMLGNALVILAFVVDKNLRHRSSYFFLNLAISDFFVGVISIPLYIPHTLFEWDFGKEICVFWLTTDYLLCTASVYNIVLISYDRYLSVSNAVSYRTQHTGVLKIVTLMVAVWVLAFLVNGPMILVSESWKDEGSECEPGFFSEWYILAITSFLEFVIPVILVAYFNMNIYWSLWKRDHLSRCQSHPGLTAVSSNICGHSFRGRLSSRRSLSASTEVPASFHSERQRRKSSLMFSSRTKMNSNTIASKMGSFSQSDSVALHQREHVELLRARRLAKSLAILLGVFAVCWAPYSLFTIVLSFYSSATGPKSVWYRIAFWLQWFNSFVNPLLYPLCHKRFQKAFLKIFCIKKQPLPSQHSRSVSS
Nature of the assay: In vitro histamine receptor cell-based assay (aequorin bioluminescence), H4 antagonism. Conditions: CHO-K1 cells expressing human H4, aequorin and Gα16; histamine at EC80; read-out: H4 Antagonist EC50. The protocol: The cell-based assays utilize an aequorin dependent bioluminescence signal. Doubly-transfected, stable CHO-K1 cell lines expressing human H1 or H4, mitochondrion-targeted aequorin, and (H4 only) human G protein Gα16 are obtained from Perkin-Elmer. Cells are maintained in F12 (Ham's) growth medium, containing 10% (vol./vol.) fetal bovine serum, penicillin (100 IU/mL), streptomycin (0.1 mg/mL), zeocin (0.25 mg/mL) and geneticin (0.40 mg/mL). Cell media components are from Invitrogen, Inc. One day prior to assay, the growth medium is replaced with the same, excluding zeocin and geneticin.
For assay preparation, growth medium is aspirated, and cells are rinsed with calcium-free, magnesium-free phosphate-buffered saline, followed by two to three minute incubation in Versene (Invitrogen, Inc.) at 37° C. Assay medium (DMEM:F12 [50:50], phenol-red free, containing 1 mg/mL protease-free bovine serum albumin) is added to collect the released cells, which are then centrifuged. The cell pellet is re-suspended in assay medium, centrifuged once more, and re-suspended in assay medium to a final density of 5×10^6 cells/mL. Coelenterazine-h dye (500 μM in ethanol) is added to a final concentration of 5 μM, and mixed immediately. The conical tube containing the cells is then wrapped with foil to protect the light-sensitive dye. The cells are incubated for four hours further at room temperature (approximately 21° C.) with end-over-end rotation to keep them in suspension.
Just before assay, the dye-loaded cells are diluted to 0.75×10^6 cells/mL (H1 receptor) or 1.5×10^6 cells/mL (H4 receptor) with additional assay medium. Cells are dispensed to 1536 well micro-titer plates at 3 μL/well. To assay receptor antagonism, 60 nl of 100× concentration test compounds in 100% dimethyl sulfoxide (DMSO) are dispensed to the wells, one compound per well, by passive pin transfer, and the plates are incubated for 15 minutes at room temperature. […] The pipette dispenses 3 μL/well of agonist (histamine, at twice the final concentration, where final concentration is a previously determined EC80) in assay medium, with concurrent bioluminescence detection. Agonist activity of test compounds is excluded by separate assays that measure response to test compounds immediately, without added histamine agonist.
CCD image capture on the Lumilux includes a 5 second baseline read prior to agonist addition, and generally a 40 second read per plate after agonist addition. A decrease in bioluminescence signal (measured either as area-under-the-curve, or maximum signal amplitude minus minimum signal amplitude) correlates with receptor antagonism in a dose dependent manner. The negative control is DMSO lacking any test compound. For antagonist assays, the positive controls are diphenhydramine (2-Diphenylmethoxy-N,N-dimethylethylamine, 10 μM final concentration, H1 receptor) or JNJ7777120 (1-[(5-Chloro-1H-indol-2-yl)carbonyl]-4-methyl-piperazine, 10 μM final concentration, H4 receptor). Efficacy is measured as a percentage of positive control activity.
As to `CN1CCN(c2nc3ccc(C(F)(F)F)c(F)c3n3nnnc23)CC1` [Example 171, 9-Fluoro-4-(4-methylpiperazin-1-yl)-8-(trifluoromethyl)tetrazolo[1,5-a]quinoxaline], the EC50 is below 10 µM.
The figure for `Fc1cc2c(cc1Cl)nc(N1CCNCC1)c1nnnn12` [Example 202, 7-chloro-8-fluoro-4-(piperazin-1-yl)tetrazolo[1,5-a]quinoxaline] is below 10 µM.
The same measure for `CN1CCN(c2nc3cc(Cl)c(F)cc3n3nnnc23)CC1` [Example 203, 7-chloro-8-fluoro-4-(4-methylpiperazin-1-yl)tetrazolo[1,5-a]quinoxaline]: below 10 µM; for `CN1CCN(c2nc3ccc(Br)cc3n3nnnc23)CC1` [Example 204, 8-bromo-4-(4-methylpiperazin-1-yl)tetrazolo[1,5-a]quinoxaline]: below 10 µM; for `Brc1ccc2nc(N3CCNCC3)c3nnnn3c2c1` [Example 205, 8-bromo-4-(piperazin-1-yOtetrazolo[1,5-a]quinoxaline]: below 10 µM.
The figure for `Fc1cc(C(F)(F)F)cc2c1nc(N1CCNCC1)c1nnnn12` [Example 206, 6-fluoro-4-(piperazin-1-yl)-8-(trifluoromethyl)tetrazolo[1,5-a]quinoxaline hydrochloride] is below 10 µM.
With `CN1CCN(c2nc3c(F)cc(C(F)(F)F)cc3n3nnnc23)CC1` [Example 207, 6-fluoro-4-(4-methylpiperazin-1-yl)-8-(trifluoromethyl)tetrazolo[1,5-a]quinoxaline hydrochloride], the EC50 was below 10 µM.
`CN1CCN(c2nc3c(F)cc(Br)cc3n3cnnc23)CC1` [Example 208, 8-bromo-6-fluoro-4-(4-methylpiperazin-1-yl)-[1,2,4]triazolo[4,3-a]quinoxaline]: the EC50 was below 10 µM.
As for `Fc1cc(Br)cc2c1nc(N1CCNCC1)c1nncn12` [Example 209, 8-bromo-6-fluoro-4-(piperazin-1-yl)-[1,2,4]triazolo[4,3-a]quinoxaline], the half-maximal effective concentration (EC50) is below 10 µM.
The figure for `CN1CCN(c2nc3c(F)cc(Br)cc3n3nnnc23)CC1` [Example 210, 8-bromo-6-fluoro-4-(4-methylpiperazin-1-yl)tetrazolo[1,5-a]quinoxaline] is below 10 µM; for `Fc1cc2nc(N3CCNCC3)c3nnnn3c2cc1Br` [Example 211, 8-bromo-7-fluoro-4-(piperazin-1-yl)tetrazolo[1,5-a]quinoxaline] it is below 10 µM; for `CN1CCN(c2nc3cc(F)c(Br)cc3n3nnnc23)CC1` [Example 212, 8-bromo-7-fluoro-4-(4-methylpiperazin-1-yl)tetrazolo[1,5-a]quinoxaline] it is below 10 µM.
The same measure for `Clc1ccc2nc(N3CCN4CCCC4C3)c3nnnn3c2c1` (stereo not shown) [Example 213, 8-chloro-4-(hexahydropyrrolo[1,2-a]pyrazin-2(1H)-yl)tetrazolo[1,5-a]quinoxaline]: below 10 µM.
Take `FC(F)(F)c1ccc2c(c1)nc(N1CCNCC1)c1nocc12` [Example 221, 4-(piperazin-1-yl)-7-(trifluoromethyl)isoxazolo[3,4-c]quinoline]: the EC50 was above 10 µM.
The same measure for `CN1CCN(c2nc3cc(Cl)ccc3c3conc23)CC1` [Example 224, 7-chloro-4-(4-methylpiperazin-1-yl)isoxazolo[3,4-c]quinoline]: below 10 µM.
The figure for `Clc1ccc2c(c1)nc(N1CCNCC1)c1nocc12` [Example 225, 7-chloro-4-(piperazin-1-yl)isoxazolo[3,4-c]quinoline] is below 10 µM.
The same measure for `CN1CCN(c2nc3cc(F)c(F)cc3c3conc23)CC1` [Example 226, 7,8-difluoro-4-(4-methylpiperazin-1-yl)isoxazolo[3,4-c]quinoline]: below 10 µM.
As for `Fc1cc2nc(N3CCNCC3)c3nocc3c2cc1F` [Example 227, 7,8-difluoro-4-(piperazin-1-yl)isoxazolo[3,4-c]quinoline], the EC50 is below 10 µM.
Regarding `CN1CCN(c2nc3cc(Br)ccc3c3conc23)CC1` [Example 228, 7-bromo-4-(4-methylpiperazin-1-yl)isoxazolo[3,4-c]quinoline], the EC50 is below 10 µM.
The same measure for `Brc1ccc2c(c1)nc(N1CCNCC1)c1nocc12` [Example 229, 7-bromo-4-(piperazin-1-yl)isoxazolo[3,4-c]quinoline]: above 10 µM.
`Clc1ccc2nc(N3CCN4CCCC4C3)c3nocc3c2c1` (stereo not shown) [Example 230, 8-chloro-4-(hexahydropyrrolo[1,2-a]pyrazin-2(1H)-yl)isoxazolo[3,4-c]quinoline]: the EC50 was below 10 µM.
The figure for `FC(F)(F)c1ccc2nc(N3CCNCC3)c3[nH]ncc3c2c1` [Example 231, 4-(piperazin-1-yl)-8-(trifluoromethyl)-3H-pyrazolo[3,4-c]quinoline] is below 10 µM.
The figure for `CN1CCN(c2nc3ccc(Br)cc3c3c[nH]nc23)CC1` [Example 232, 8-bromo-4-(4-methylpiperazin-1-yl)-2H-pyrazolo[3,4-c]quinoline] is below 10 µM; for `Brc1ccc2nc(N3CCNCC3)c3n[nH]cc3c2c1` [Example 233, 8-bromo-4-(piperazin-1-yl)-2H-pyrazolo[3,4-c]quinoline] it is below 10 µM; for `CN1CCN(c2nc3ccc(Br)cc3c3cn(C)nc23)CC1` [Example 234, 8-bromo-2-methyl-4-(4-methylpiperazin-1-yl)-2H-pyrazolo[3,4-c]quinoline] it is below 10 µM.
As for `Cn1cc2c(n1)c(N1CCNCC1)nc1ccc(Br)cc12` [Example 235, 8-bromo-2-methyl-4-(piperazin-1-yl)-2H-pyrazolo[3,4-c]quinoline], the EC50 was below 10 µM.
For the compound `Cc1nc2c(N3CCN(C)CC3)nc3cc(F)c(Br)cc3n2n1` [Example 237, 8-bromo-7-fluoro-2-methyl-4-(4-methylpiperazin-1-yl)-[1,2,4]triazolo[1,5-a]quinoxaline], the EC50 is below 10 µM.
The figure for `Cc1nc2c(N3CCNCC3)nc3cc(F)c(Br)cc3n2n1` [Example 238, 8-bromo-7-fluoro-2-methyl-4-(piperazin-1-yl)-[1,2,4]triazolo[1,5-a]quinoxaline] is below 10 µM; for `Cc1nc2c(N3CCN(C)CC3)nc3cc(F)c(C)cc3n2n1` [Example 239, 7-fluoro-2,8-dimethyl-4-(4-methylpiperazin-1-yl)-[1,2,4]triazolo[1,5-a]quinoxaline] it is below 10 µM; for `Cc1nc2c(N3CCNCC3)nc3cc(F)c(C)cc3n2n1` [Example 240, 7-fluoro-2,8-dimethyl-4-(piperazin-1-yl)-[1,2,4]triazolo[1,5-a]quinoxaline] it is below 10 µM.
As for `Cc1nc2c(N3CCN(C)CC3)nc3ccc(Br)cc3n2n1` [Example 241, 8-bromo-2-methyl-4-(4-methylpiperazin-1-yl)-[1,2,4]triazolo[1,5-a]quinoxaline], the EC50 is below 10 µM.
For the compound `Cc1nc2c(N3CCNCC3)nc3ccc(Br)cc3n2n1` [Example 242, 8-bromo-2-methyl-4-(piperazin-1-yl)-[1,2,4]triazolo[1,5-a]quinoxaline], the concentration giving a half-maximal response (EC50) was below 10 µM.
The figure for `CN1CCN(c2nc3ccc(Cl)cc3n3ncnc23)CC1` [Example 243, 8-chloro-4-(4-methylpiperazin-1-yl)-[1,2,4]triazolo[1,5-a]quinoxaline] is below 10 µM; for `CCOC(=O)c1nc2c(N3CCN(C)CC3)nc3ccc(Cl)cc3n2n1` [Example 244, Ethyl 8-chloro-4-(4-methylpiperazin-1-yl)-[1,2,4]triazolo[1,5-a]quinoxaline-2-carboxylate] it is above 10 µM; for `Cc1nc2c3cc(Cl)cc(F)c3nc(N3CCN(C)CC3)n2n1` [Example 246, 9-chloro-7-fluoro-2-methyl-5-(4-methylpiperazin-1-yl)-[1,2,4]triazolo[1,5-c]quinazoline] it is below 10 µM.
The figure for `Cc1nc2c3cc(Cl)cc(F)c3nc(N3CCNCC3)n2n1` [Example 247, 9-chloro-7-fluoro-2-methyl-5-(piperazin-1-yl)-[1,2,4]triazolo[1,5-c]quinazoline] is below 10 µM; for `Cc1nc2c3cc(Br)cc(F)c3nc(N3CCN(C)CC3)n2n1` [Example 248, 9-bromo-7-fluoro-2-methyl-5-(4-methylpiperazin-1-yl)-[1,2,4]triazolo[1,5-c]quinazoline] it is below 10 µM.
